In BigSolDB 2.1:

Nc1cccnn1
Conditions	solubility (mole fraction)
in acetone, 288.25 K	0.0068
in acetone, 293.15 K	0.00801
in acetone, 298.35 K	0.00907
in acetone, 303.05 K	0.0102
in acetone, 308.35 K	0.012
in acetone, 313.25 K	0.0133
in acetone, 317.85 K	0.0148
in acetone, 323.35 K	0.0169
in acetone, 328.05 K	0.0187
in aniline, 288.05 K	0.0231
in aniline, 293.25 K	0.0289
in aniline, 298.35 K	0.0347
in aniline, 302.95 K	0.0419
in aniline, 308.45 K	0.0487
in aniline, 313.15 K	0.0559
in aniline, 318.15 K	0.0623
in aniline, 323.45 K	0.0693
in aniline, 328.15 K	0.076
in aniline, 333.35 K	0.0825
in ethanol, 288.35 K	0.0193
in ethanol, 294.05 K	0.0213
in ethanol, 298.75 K	0.0237
in ethanol, 303.15 K	0.0266
in ethanol, 308.25 K	0.0306
in ethanol, 313.35 K	0.0349
in ethanol, 318.35 K	0.0409
in ethanol, 323.35 K	0.0492
in ethanol, 328.35 K	0.0602
in ethanol, 333.15 K	0.0713
in ethyl acetate, 288.45 K	0.00228
in ethyl acetate, 293.15 K	0.00275
in ethyl acetate, 298.65 K	0.00324
in ethyl acetate, 302.75 K	0.00383
in ethyl acetate, 307.15 K	0.00434
in ethyl acetate, 312.95 K	0.00522
in ethyl acetate, 318.65 K	0.00588
in ethyl acetate, 322.65 K	0.00665
in ethyl acetate, 328.25 K	0.00738
in ethyl acetate, 332.35 K	0.00813
in isopropanol, 288.15 K	0.0122
in isopropanol, 298.15 K	0.0172
in isopropanol, 303.55 K	0.0203
in isopropanol, 308.45 K	0.0233
in isopropanol, 312.85 K	0.0277
in isopropanol, 317.75 K	0.0315
in isopropanol, 323.25 K	0.0373
in isopropanol, 328.05 K	0.0412
in isopropanol, 332.95 K	0.0465
in methanol, 288.15 K	0.0356
in methanol, 293.05 K	0.0398
in methanol, 298.15 K	0.0455
in methanol, 303.25 K	0.052
in methanol, 308.15 K	0.0596
in methanol, 313.15 K	0.0675
in methanol, 318.25 K	0.076
in methanol, 323.55 K	0.0865
in methanol, 328.15 K	0.0981
in n-butanol, 289.35 K	0.0105
in n-butanol, 293.35 K	0.0126
in n-butanol, 298.05 K	0.017
in n-butanol, 303.15 K	0.0218
in n-butanol, 308.15 K	0.0267
in n-butanol, 313.15 K	0.0324
in n-butanol, 318.05 K	0.0371
in n-butanol, 322.65 K	0.042
in n-butanol, 327.95 K	0.0469
in n-butanol, 332.95 K	0.0519
in n-propanol, 288.45 K	0.0161
in n-propanol, 293.05 K	0.0185
in n-propanol, 298.35 K	0.022
in n-propanol, 302.85 K	0.0255
in n-propanol, 308.15 K	0.0293
in n-propanol, 313.05 K	0.0351
in n-propanol, 318.35 K	0.0401
in n-propanol, 322.95 K	0.0461
in n-propanol, 327.95 K	0.0519
in n-propanol, 333.15 K	0.0602
